This note sets out measurements from patent publication US10702604B2, “Lipid nanocapsules comprising a retinoid, nanodispersion and composition containing the same, process for preparing the same and use thereof in dermatology” (GALDERMA RESEARCH & DEVELOPMENT, priority 2012, dated 2020).

Series [1] in a line: Chemical stability of compound A in gel compositions (HPLC-UV assay). It is filed as physicochemical. To be noted: 4° C., room temperature and 40° C., up to 6 to 7 months. Here is the method:
Compositions 1 and 2 according to Example 3 were placed under various stability conditions: 4° C., room temperature and 40° C., and were monitored for 6 to 7 months. At each stability checkpoint, compound A was assayed by HPLC-UV.

Series [2] in a line: Chemical stability of compound A in oily phases (HPLC-UV). Format: physicochemical. As to the method:
The stability of the active agent was evaluated by liquid chromatography coupled to a UV detector (HPLC-UV).

For a further series, the system named is ear of BALB/C mice. In words: Tolerance study: pro-inflammatory effect after single application to the mouse ear (ear thickness). To be noted: single topical application, 0.01% in acetone, 20 μl. Format: in vivo. Here is the method:
The aim of the study is to evaluate the effect of a composition according to the invention on the pro-inflammatory activity associated with retinoids in general.
A single application of 20 μl of the test products was administered to the ear of the mice on day 1. Clinical observations and measurements of the mouse ear thickness, directly linked to inflammation, are performed from day 2 up to day 12.

Series [3] can be described thus: Maximum solubility of compound A in various oily phases. Format: physicochemical.
Setting [4] is: in caprylic/capric acid triglycerides (Miglyol 812N).
[5] abbreviates: in diisopropyl adipate (Crodamol DA).
Where [6] appears, read: in macrogol oleate (Labrafil M1944CS).
Where [7] appears, read: in propylene glycol dicaprylate/dicaprate (Myritol PC).
The mark [8] stands for this setting: in propylene glycol monolaurate (Lauroglycol FCC).

Consider `CC(C)(C)c1cc(-c2cc(-c3ccc(C(=O)O)cc3)ccc2OCCO)ccc1N1CCCC1` [Compound A, 3″-tert-butyl-4′-(2-hydroxyethoxy)-4″-pyrrolidin-1-yl-[1,1′;3′,1″]-terphenyl-4-carboxylic acid], for which the “Chemical stability of compound A in the gel compositions” value in series [1] is on record as “chemically stable”. For the same molecule, the Stability in series [2] (setting [4]) was 6 months RT/40 °C; in series [2] (setting [5]), 6 months RT/40 °C; in series [2] (setting [6]), 6 months RT/40 °C; in series [2] (in octyldodecanol (Eutanol G)), “Unstable”; in series [2] (setting [7]), “Unstable”; in series [2] (in propylene glycol monocaprylate (Capryol 90), RT = room temperature) it was 6 months RT/40 °C. Further, the Stability in series [2] (setting [8]) and in series [2] (in sweet almond oil) was 6 months RT/40 °C each time. The “Increase in the thickness of the mouse ear versus acetone alone” value in the series with ear of BALB/C mice was 59%. The Maximum solubility in series [3] (setting [4]) is recorded as 0.019 % m/m; in series [3] (setting [5]), 0.297 % m/m; in series [3] (setting [6]) it was 0.156 % m/m; in series [3] (in mineral oil) it was 0.0001 % m/m; in series [3] (in octyldodecanol (Eutanol G)) it was 0.137 % m/m; in series [3] (setting [7]), 0.069 % m/m. In addition, the Maximum solubility in series [3] (in propylene glycol monocaprylate (Capryol 90)) was 0.802 % m/m; in series [3] (setting [8]) it was 0.296 % m/m; in series [3] (in sweet almond oil) it was 0.011 % m/m.
